Test results from patent publication US8889874B2, “Imidazolone-chalcone derivatives as potential anticancer agent and process for the preparation thereof” (Council of Scientific and Industrial Research, priority 2010, dated 2014).
Like-named read-outs stand apart in the source and are kept apart here.

Assays:
Assay in all cases: NCI anticancer screen, SRB assay, 48 h
Format in all cases: cell-based, human
786-0 (renal) = conditions: Homo sapiens
Outline: (§1)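 Compounds were tested across fifty three human cancer cell lines from nine tumour types. Each line got a dose-response curve of at least five concentrations at 10-fold dilutions, with continuous drug exposure and sulforhodamine B protein staining to estimate viability or growth.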

ACHN (renal) = conditions: Homo sapiens
Outline: as §1

HCT-116 (colon) = conditions: Homo sapiens
Outline: as §1

[1] = test system: HOP-62 (non-small cell lung); conditions: Homo sapiens
Outline: as §1

HS 578T (breast) = conditions: Homo sapiens
Outline: as §1

HT29 (colon) = conditions: Homo sapiens
Outline: as §1

[2] = test system: K-562 (leukemia cell line); conditions: Homo sapiens
Outline: as §1

LOX IMVI (melanoma) = conditions: Homo sapiens
Outline: as §1

M14 (melanoma) = conditions: Homo sapiens
Outline: as §1

MALME-3M (melanoma) = conditions: Homo sapiens
Outline: as §1

MCF7 (breast) = conditions: Homo sapiens
Outline: as §1

MDA-MB-231/ATCC (breast) = conditions: Homo sapiens
Outline: as §1

[3] = test system: NCI-H226 (non-small cell lung); conditions: Homo sapiens
Outline: as §1

[4] = test system: NCI-H460 (non-small cell lung); conditions: Homo sapiens
Outline: as §1

NCI/ADR-RES (ovarian) = conditions: Homo sapiens, NCI/ADR-RES
Outline: as §1

OVCAR-4 (ovarian) = conditions: Homo sapiens
Outline: as §1

OVCAR-8 (ovarian) = conditions: Homo sapiens
Outline: as §1

[5] = test system: RPMI-8226 (leukemia cell line); conditions: Homo sapiens
Outline: as §1

RXF 393 (renal) = conditions: Homo sapiens
Outline: as §1

SF-268 (CNS) = conditions: Homo sapiens
Outline: as §1

SF-295 (CNS) = conditions: Homo sapiens
Outline: as §1

SK-MEL-28 (melanoma) = conditions: Homo sapiens
Outline: as §1

SK-OV-3 (ovarian) = conditions: Homo sapiens
Outline: as §1

SNB-19 (CNS) = conditions: Homo sapiens
Outline: as §1

SNB-75 (CNS) = conditions: Homo sapiens
Outline: as §1

SW-620 (colon) = conditions: Homo sapiens
Outline: as §1

U251 (CNS) = conditions: Homo sapiens
Outline: as §1

UACC-257 (melanoma) = conditions: Homo sapiens
Outline: as §1

UACC-62 (melanoma) = conditions: Homo sapiens
Outline: as §1

[6] = 48 h exposure, SRB, read-out: GI50
[7] = read-out: pGI50 (-log of molar concentration causing 50% inhibition of net cell growth) (converted)

COc1cc(/C=C/C(=O)c2cccc(-n3cc(-c4ccccc4)[nH]c3=O)c2)cc(OC)c1OC [5a, 4-phenyl-1-3-[(E)-3-(3,4,5-trimethoxyphenyl)-2-propenoyl]phenyl-2,3-dihydro-1H-2-imidazolone]
GI50 (786-0 (renal); [6]): 1.38 µM | GI50 (786-0 (renal); [7]): 1.38 µM | GI50 (ACHN (renal); [6]): 1.6 µM | GI50 (ACHN (renal); [7]): 1.58 µM | GI50 (HCT-116 (colon); [6]): 0.33 µM | GI50 (HCT-116 (colon); [7]): 0.331 µM | GI50 [1, 6]: 4.12 µM | GI50 [1, 7]: 4.07 µM | GI50 (HS 578T (breast); [6]): 3.41 µM | GI50 (HS 578T (breast); [7]): 3.39 µM | GI50 (HT29 (colon); HT-29, 48 h exposure, SRB, read-out: GI50): 0.66 µM | GI50 (HT29 (colon); HT-29, read-out: pGI50 (-log of molar concentration causing 50% inhibition of net cell growth) (converted)): 0.661 µM | GI50 ([2]; K562, 48 h exposure, SRB, read-out: GI50): 0.5 µM | GI50 ([2]; K562, read-out: pGI50 (-log of molar concentration causing 50% inhibition of net cell growth) (converted)): 0.501 µM | GI50 (LOX IMVI (melanoma); [6]): 0.48 µM | GI50 (LOX IMVI (melanoma); [7]): 0.479 µM | GI50 (M14 (melanoma); [6]): 1.35 µM | GI50 (M14 (melanoma); [7]): 1.35 µM | GI50 (MALME-3M (melanoma); Malme-3M, read-out: pGI50 (-log of molar concentration causing 50% inhibition of net cell growth) (converted)): 1.32 µM | GI50 (MALME-3M (melanoma); MALME-3M, 48 h exposure, SRB, read-out: GI50): 1.31 µM | GI50 (MCF7 (breast); [6]): 0.31 µM | GI50 (MCF7 (breast); [7]): 0.309 µM | GI50 (MDA-MB-231/ATCC (breast); [6]): 2.17 µM | GI50 (MDA-MB-231/ATCC (breast); [7]): 2.19 µM | GI50 [3, 6]: 14.6 µM | GI50 [3, 7]: 14.5 µM | GI50 [4, 6]: 1.4 µM | GI50 [4, 7]: 1.41 µM | GI50 (NCI/ADR-RES (ovarian); NCl/ADR-RES, 48 h exposure, SRB, read-out: GI50): 1.1 µM | GI50 (NCI/ADR-RES (ovarian); [7]): 1.1 µM | GI50 (OVCAR-4 (ovarian); [6]): 1.88 µM | GI50 (OVCAR-4 (ovarian); [7]): 1.86 µM | GI50 (OVCAR-8 (ovarian); [6]): 1.62 µM | GI50 (OVCAR-8 (ovarian); [7]): 1.62 µM | GI50 [5, 6]: 0.62 µM | GI50 [5, 7]: 0.617 µM | GI50 (RXF 393 (renal); RXF 393, 48 h exposure, SRB, read-out: GI50): 1.71 µM | GI50 (RXF 393 (renal); RXF-393, read-out: pGI50 (-log of molar concentration causing 50% inhibition of net cell growth) (converted)): 1.7 µM | GI50 (SF-268 (CNS); [6]): 1.92 µM | GI50 (SF-268 (CNS); [7]): 1.91 µM | GI50 (SF-295 (CNS); [6]): 1.9 µM | GI50 (SF-295 (CNS); [7]): 1.91 µM | GI50 (SK-MEL-28 (melanoma); [6]): 1.74 µM | GI50 (SK-MEL-28 (melanoma); [7]): 1.74 µM | GI50 (SK-OV-3 (ovarian); [6]): 3.27 µM | GI50 (SK-OV-3 (ovarian); [7]): 3.24 µM | GI50 (SNB-19 (CNS); [6]): 2.35 µM | GI50 (SNB-19 (CNS); [7]): 2.34 µM | GI50 (SNB-75 (CNS); [6]): 4.47 µM | GI50 (SNB-75 (CNS); [7]): 4.47 µM | GI50 (SW-620 (colon); [6]): 0.39 µM | GI50 (SW-620 (colon); [7]): 0.389 µM | GI50 (U251 (CNS); U-251, 48 h exposure, SRB, read-out: GI50): 0.63 µM | GI50 (U251 (CNS); U-251, read-out: pGI50 (-log of molar concentration causing 50% inhibition of net cell growth) (converted)): 0.631 µM | GI50 (UACC-257 (melanoma); [6]): 1.52 µM | GI50 (UACC-257 (melanoma); [7]): 1.51 µM | GI50 (UACC-62 (melanoma); [6]): 1.52 µM | GI50 (UACC-62 (melanoma); [7]): 1.51 µM
